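The compound was tested at five concentrations on cells cultured in 96-well plates, with a 48-hour exposure period. GI50: concentration for 50% inhibition of growth.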 The source made the active and inactive calls. Cut-off read from the data, not from the text of the source: active = GI50 up to about 1.1 µM and inactive = higher.
How the values were obtained:
Test in all cases: NCI-60 cell line screen, 48 h
KM12 = system: KM12
Malme-3M = system: Malme-3M
T47D = system: T47D
UACC-62 = system: UACC-62
COLO 205 = system: COLO 205
IGROV-1 = system: IGROV-1
NCI-H23 = system: NCI-H23
SNB-19 = system: SNB-19
DU-145 = system: DU-145
PC-3 = system: PC-3
SK-MEL-2 = system: SK-MEL-2
SK-OV-3 = system: SK-OV-3
M14 = system: M14
Hs-578T = system: Hs-578T
LOX IMVI = system: LOX IMVI
MDA-N = system: MDA-N
NCI-H460 = system: NCI-H460
MDA-MB-231 = system: MDA-MB-231
SK-MEL-5 = system: SK-MEL-5
SF-268 = system: SF-268

COc1ccc(C(c2c[nH]c3ccc(Br)cc23)c2c[nH]c3ccc(Br)cc23)cc1
GI50 (KM12): 0.197 µM (active)
GI50 (Malme-3M): 0.811 µM (active)
GI50 (T47D): 0.446 µM (active)
GI50 (UACC-62): 0.218 µM (active)
GI50 (COLO 205): 0.17 µM (active)
GI50 (IGROV-1): 0.264 µM (active)
GI50 (NCI-H23): 0.367 µM (active)
GI50 (SNB-19): 0.509 µM (active)
GI50 (DU-145): 0.364 µM (active)
GI50 (PC-3): 0.284 µM (active)
GI50 (SK-MEL-2): 0.366 µM (active)
GI50 (SK-OV-3): 1.24 µM (inactive)
GI50 (M14): 0.237 µM (active)
GI50 (Hs-578T): 0.575 µM (active)
GI50 (LOX IMVI): 0.137 µM (active)
GI50 (MDA-N): 0.208 µM (active)
GI50 (NCI-H460): 0.228 µM (active)
GI50 (MDA-MB-231): 0.242 µM (active)
GI50 (SK-MEL-5): 0.359 µM (active)
GI50 (SF-268): 0.33 µM (active)

Nc1nonc1-c1noc(-c2nonc2N)[n+]1[O-]
GI50 (KM12): 58.9 µM (inactive)
GI50 (Malme-3M): 20.4 µM (inactive)
GI50 (T47D): > 10 µM (inactive)
GI50 (UACC-62): 66.7 µM (inactive)
GI50 (COLO 205): > 10 µM (inactive)
GI50 (IGROV-1): > 100 µM (inactive)
GI50 (NCI-H23): 77.4 µM (inactive)
GI50 (SNB-19): > 100 µM (inactive)
GI50 (DU-145): > 100 µM (inactive)
GI50 (PC-3): 69.7 µM (inactive)
GI50 (SK-MEL-2): > 100 µM (inactive)
GI50 (SK-OV-3): > 100 µM (inactive)
GI50 (M14): 29.6 µM (inactive)
GI50 (Hs-578T): > 100 µM (inactive)
GI50 (LOX IMVI): 63.2 µM (inactive)
GI50 (MDA-N): 69.7 µM (inactive)
GI50 (NCI-H460): 62.7 µM (inactive)
GI50 (MDA-MB-231): > 100 µM (inactive)
GI50 (SK-MEL-5): 32.1 µM (inactive)
GI50 (SF-268): > 100 µM (inactive)

O=C1C(NCCO)=C(N2CC2)C(=O)C(NCCO)=C1N1CC1
GI50 (KM12): 74.5 µM (inactive)
GI50 (Malme-3M): > 100 µM (inactive)
GI50 (T47D): > 69.2 µM (inactive)
GI50 (UACC-62): 25.1 µM (inactive)
GI50 (COLO 205): > 67.6 µM (inactive)
GI50 (IGROV-1): > 97.5 µM (inactive)
GI50 (NCI-H23): 29.2 µM (inactive)
GI50 (SNB-19): 60.7 µM (inactive)
GI50 (DU-145): > 77.3 µM (inactive)
GI50 (PC-3): > 100 µM (inactive)
GI50 (SK-MEL-2): > 58.3 µM (inactive)
GI50 (SK-OV-3): > 70.6 µM (inactive)
GI50 (M14): 47.3 µM (inactive)
GI50 (Hs-578T): > 100 µM (inactive)
GI50 (LOX IMVI): 17.1 µM (inactive)
GI50 (MDA-N): > 60.4 µM (inactive)
GI50 (NCI-H460): 10.2 µM (inactive)
GI50 (MDA-MB-231): > 90.4 µM (inactive)
GI50 (SK-MEL-5): 50 µM (inactive)
GI50 (SF-268): 30.8 µM (inactive)

CCCCCCCCCCCCCC/C(C(=O)O)=C(\C)C(=O)O
GI50 (KM12): > 100 µM (inactive)
GI50 (Malme-3M): > 100 µM (inactive)
GI50 (T47D): > 100 µM (inactive)
GI50 (UACC-62): > 100 µM (inactive)
GI50 (COLO 205): > 100 µM (inactive)
GI50 (IGROV-1): > 100 µM (inactive)
GI50 (NCI-H23): > 100 µM (inactive)
GI50 (SNB-19): > 100 µM (inactive)
GI50 (DU-145): > 100 µM (inactive)
GI50 (PC-3): 38.2 µM (inactive)
GI50 (SK-MEL-2): > 100 µM (inactive)
GI50 (SK-OV-3): > 100 µM (inactive)
GI50 (M14): > 100 µM (inactive)
GI50 (Hs-578T): > 100 µM (inactive)
GI50 (LOX IMVI): > 100 µM (inactive)
GI50 (MDA-N): > 100 µM (inactive)
GI50 (NCI-H460): > 100 µM (inactive)
GI50 (MDA-MB-231): > 100 µM (inactive)
GI50 (SK-MEL-5): > 100 µM (inactive)
GI50 (SF-268): > 100 µM (inactive)

CC(C)(C)[Si](C)(C)OCC1CCC(n2cnc3c(=O)[nH]cnc32)O1 (stereo not given)
GI50 (KM12): > 100 µM (inactive)
GI50 (Malme-3M): 78.9 µM (inactive)
GI50 (T47D): 82.8 µM (inactive)
GI50 (UACC-62): 35.7 µM (inactive)
GI50 (COLO 205): > 100 µM (inactive)
GI50 (IGROV-1): > 100 µM (inactive)
GI50 (NCI-H23): > 100 µM (inactive)
GI50 (SNB-19): > 100 µM (inactive)
GI50 (DU-145): > 100 µM (inactive)
GI50 (PC-3): > 100 µM (inactive)
GI50 (SK-MEL-2): > 100 µM (inactive)
GI50 (SK-OV-3): > 100 µM (inactive)
GI50 (M14): > 100 µM (inactive)
GI50 (Hs-578T): 58.2 µM (inactive)
GI50 (LOX IMVI): > 100 µM (inactive)
GI50 (MDA-N): > 100 µM (inactive)
GI50 (NCI-H460): > 100 µM (inactive)
GI50 (MDA-MB-231): > 100 µM (inactive)
GI50 (SK-MEL-5): 32.5 µM (inactive)
GI50 (SF-268): > 100 µM (inactive)

Source: ChEMBL document CHEMBL1201862, “PubChem BioAssay data set” (2004)
